Calls of active or inactive are those of the source.
Columns and labels:
Paired box protein Pax-8 = Paired box protein Pax-8 (Homo sapiens, UniProt Q06710); experiment: inhibitors of PAX8-driven TPO luciferase reporter, dose response, RMG-I cells, cherry-pick (AID 687027); format: functional, cell-based;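 note: luciferase reporter driven by Pax8 target thyroperoxidase promoter measured by SteadyGlo luminescence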
[1] = NIH:OVCAR-3 ovarian cancer cell cytotoxicity, dose response, PAX8 inhibitor project, plate reader, dry powder samples (AID 743044); format: functional, cell-based
[2] = IGROV1 ovarian cancer cell cytotoxicity, dose response, PAX8 inhibitor project, plate reader, dry powder samples (AID 743043); format: functional, cell-based; settings: IGROV-1
[3] = cytotoxicity in OVCAR8 ovarian cancer cells, dose response, PAX8 project, cell-based, plate reader, dry powder samples (AID 743197); format: functional; settings: OVCAR-8
[4] = biological target: T1, Oxysterols receptor LXR-beta (Homo sapiens, UniProt P55055); format: functional, cell-based;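 note: agonist activity at LXR measured by a cell-based luminescence readout across a dose range, run as a counterscreen for daf-12 agonists; HEK293 cells with Gal4-LXR fusion and GAL4-driven luciferase reporter; potency for activation of Gal4-LXR reporter so compounds are agonists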
T1 sequence (P55055 whole entry): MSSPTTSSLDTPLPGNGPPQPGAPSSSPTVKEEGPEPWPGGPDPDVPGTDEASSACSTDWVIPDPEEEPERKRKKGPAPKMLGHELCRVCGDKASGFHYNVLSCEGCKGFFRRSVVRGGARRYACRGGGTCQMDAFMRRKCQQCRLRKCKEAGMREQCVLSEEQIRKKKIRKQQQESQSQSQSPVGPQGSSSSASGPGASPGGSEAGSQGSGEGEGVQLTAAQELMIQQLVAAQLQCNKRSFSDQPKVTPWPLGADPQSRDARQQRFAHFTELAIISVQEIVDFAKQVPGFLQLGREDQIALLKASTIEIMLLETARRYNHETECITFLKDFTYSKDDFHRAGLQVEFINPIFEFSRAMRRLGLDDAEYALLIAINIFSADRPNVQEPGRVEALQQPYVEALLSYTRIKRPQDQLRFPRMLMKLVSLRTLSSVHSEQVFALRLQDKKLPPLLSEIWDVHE

Protein skinhead-1 = biological target: T2, Protein skinhead-1 (Caenorhabditis elegans, UniProt P34707); format: functional
T2 sequence (P34707 whole entry): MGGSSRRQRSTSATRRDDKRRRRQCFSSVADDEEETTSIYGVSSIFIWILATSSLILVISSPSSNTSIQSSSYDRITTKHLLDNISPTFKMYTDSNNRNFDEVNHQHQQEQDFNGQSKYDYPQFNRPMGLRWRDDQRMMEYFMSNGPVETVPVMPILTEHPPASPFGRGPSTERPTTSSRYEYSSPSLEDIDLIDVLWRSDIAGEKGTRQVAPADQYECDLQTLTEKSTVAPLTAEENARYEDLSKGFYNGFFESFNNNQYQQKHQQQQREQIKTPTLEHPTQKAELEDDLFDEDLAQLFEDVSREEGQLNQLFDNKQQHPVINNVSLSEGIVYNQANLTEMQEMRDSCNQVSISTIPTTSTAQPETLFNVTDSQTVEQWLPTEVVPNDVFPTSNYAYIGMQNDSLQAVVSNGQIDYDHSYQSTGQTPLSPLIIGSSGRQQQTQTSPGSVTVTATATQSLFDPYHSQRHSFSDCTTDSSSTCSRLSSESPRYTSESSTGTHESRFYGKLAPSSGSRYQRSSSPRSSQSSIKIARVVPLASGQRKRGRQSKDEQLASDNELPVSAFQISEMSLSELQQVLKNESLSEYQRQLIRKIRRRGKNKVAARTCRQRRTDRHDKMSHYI

[5] = inhibitors of PGC1a acetylation in cells, dose response, cell-based, cherry-picked samples (AID 720514); format: functional;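 note: potency may reflect raised or lowered acetylation signal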
Estrogen receptor beta [6] = biological target: T3, Estrogen receptor beta (Homo sapiens, UniProt Q92731); experiment: ERβ–SRC-3 coactivator interaction inhibitors, confirmation, orthogonal assay, biochemical, ELISA, streptavidin-HRP readout (AID 1060)
T3 sequence (Q92731 whole entry): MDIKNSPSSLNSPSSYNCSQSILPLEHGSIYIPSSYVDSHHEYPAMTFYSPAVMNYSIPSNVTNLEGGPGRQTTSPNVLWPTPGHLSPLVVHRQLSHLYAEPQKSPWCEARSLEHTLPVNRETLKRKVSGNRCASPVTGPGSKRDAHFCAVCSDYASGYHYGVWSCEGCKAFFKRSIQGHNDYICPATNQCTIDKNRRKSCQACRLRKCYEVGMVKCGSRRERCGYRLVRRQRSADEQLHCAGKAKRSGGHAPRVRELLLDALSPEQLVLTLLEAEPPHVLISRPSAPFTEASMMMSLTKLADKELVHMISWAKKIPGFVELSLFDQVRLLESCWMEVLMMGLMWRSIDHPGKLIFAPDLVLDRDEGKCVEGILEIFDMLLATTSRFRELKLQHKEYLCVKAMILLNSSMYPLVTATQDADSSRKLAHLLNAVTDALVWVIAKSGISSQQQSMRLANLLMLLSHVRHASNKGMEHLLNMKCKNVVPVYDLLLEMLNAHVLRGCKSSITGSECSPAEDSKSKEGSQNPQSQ

Estrogen receptor beta [7] = biological target: T3, Estrogen receptor beta
[8] = biological target: T4, Histone-lysine N-methyltransferase NSD2 (Homo sapiens, UniProt O96028); format: biochemical
T4 sequence (O96028 whole entry): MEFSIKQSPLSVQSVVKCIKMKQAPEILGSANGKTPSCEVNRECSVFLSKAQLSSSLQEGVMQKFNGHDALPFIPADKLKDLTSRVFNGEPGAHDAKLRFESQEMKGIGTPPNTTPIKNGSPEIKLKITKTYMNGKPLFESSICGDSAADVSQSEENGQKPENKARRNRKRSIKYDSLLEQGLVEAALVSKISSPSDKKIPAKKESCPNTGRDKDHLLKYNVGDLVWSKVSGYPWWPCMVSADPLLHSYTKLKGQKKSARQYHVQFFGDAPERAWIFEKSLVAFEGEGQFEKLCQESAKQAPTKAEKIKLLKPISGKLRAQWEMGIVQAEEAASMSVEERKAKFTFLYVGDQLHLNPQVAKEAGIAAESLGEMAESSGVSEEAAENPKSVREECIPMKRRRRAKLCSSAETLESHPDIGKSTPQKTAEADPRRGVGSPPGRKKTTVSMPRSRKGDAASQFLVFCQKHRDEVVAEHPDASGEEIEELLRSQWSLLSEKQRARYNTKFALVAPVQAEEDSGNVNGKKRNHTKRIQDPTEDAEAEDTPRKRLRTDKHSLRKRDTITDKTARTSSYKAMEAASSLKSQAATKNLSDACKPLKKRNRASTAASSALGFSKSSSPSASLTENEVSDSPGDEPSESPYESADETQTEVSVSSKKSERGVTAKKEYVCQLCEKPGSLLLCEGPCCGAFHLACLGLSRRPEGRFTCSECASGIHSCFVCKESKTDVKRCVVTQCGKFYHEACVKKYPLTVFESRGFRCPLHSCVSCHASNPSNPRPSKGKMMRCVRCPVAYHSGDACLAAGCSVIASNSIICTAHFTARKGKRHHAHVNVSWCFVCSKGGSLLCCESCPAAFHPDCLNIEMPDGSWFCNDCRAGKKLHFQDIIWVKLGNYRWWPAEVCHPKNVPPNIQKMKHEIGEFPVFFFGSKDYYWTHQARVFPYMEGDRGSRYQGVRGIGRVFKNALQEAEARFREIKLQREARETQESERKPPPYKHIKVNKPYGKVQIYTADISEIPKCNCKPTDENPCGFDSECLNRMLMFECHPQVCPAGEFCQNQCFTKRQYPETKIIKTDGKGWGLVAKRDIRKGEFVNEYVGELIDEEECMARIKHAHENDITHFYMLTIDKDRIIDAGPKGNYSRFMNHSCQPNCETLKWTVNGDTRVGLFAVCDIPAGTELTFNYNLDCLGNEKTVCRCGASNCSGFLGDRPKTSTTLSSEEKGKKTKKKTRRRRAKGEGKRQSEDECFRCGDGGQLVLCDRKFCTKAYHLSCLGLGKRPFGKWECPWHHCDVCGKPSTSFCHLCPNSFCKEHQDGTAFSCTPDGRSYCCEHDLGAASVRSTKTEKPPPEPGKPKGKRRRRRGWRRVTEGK

Protein RecA = biological target: T5, Protein RecA (Mycobacterium tuberculosis, UniProt P9WHJ3); experiment: Fluorescence Cell-Free Homogeneous Dose Retest to Identify Inhibitors of RecA-Intein Splicing Activity. [Related pubchem assays (depositor defined):AID2097, AID2223, AID489010, AID492950]; format: functional
T5 sequence (P9WHJ3 whole entry): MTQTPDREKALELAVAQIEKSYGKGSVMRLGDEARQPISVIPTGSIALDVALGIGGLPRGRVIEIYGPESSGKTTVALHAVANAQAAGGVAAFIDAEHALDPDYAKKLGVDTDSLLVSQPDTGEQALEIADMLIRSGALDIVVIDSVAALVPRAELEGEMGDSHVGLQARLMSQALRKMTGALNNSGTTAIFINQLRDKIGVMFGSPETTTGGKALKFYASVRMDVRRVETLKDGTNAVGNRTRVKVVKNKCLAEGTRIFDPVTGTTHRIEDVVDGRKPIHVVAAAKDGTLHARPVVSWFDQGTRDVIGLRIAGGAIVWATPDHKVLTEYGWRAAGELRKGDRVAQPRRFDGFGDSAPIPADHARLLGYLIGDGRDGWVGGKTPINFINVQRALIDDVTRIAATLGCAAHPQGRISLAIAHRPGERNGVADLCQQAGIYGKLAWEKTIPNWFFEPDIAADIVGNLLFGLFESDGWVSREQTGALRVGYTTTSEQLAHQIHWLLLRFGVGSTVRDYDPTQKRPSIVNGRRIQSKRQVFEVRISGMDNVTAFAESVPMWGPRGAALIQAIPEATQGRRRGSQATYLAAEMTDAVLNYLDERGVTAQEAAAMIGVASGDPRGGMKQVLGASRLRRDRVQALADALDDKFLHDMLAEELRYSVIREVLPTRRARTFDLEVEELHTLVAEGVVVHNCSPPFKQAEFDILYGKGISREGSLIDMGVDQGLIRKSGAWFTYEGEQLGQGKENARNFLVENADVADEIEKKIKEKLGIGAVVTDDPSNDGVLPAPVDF

[9] = P. falciparum Dd2 growth inhibitors, dose response, SYBR Green, cherry-picked samples (AID 1159567); format: functional, cell-based
[10] = HepG2 cell cytotoxicity, dose response, cytotoxicity control, cherry-picked samples (AID 1159577); format: functional, cell-based
[11] = A549 cell cytotoxicity, dose response, cytotoxicity control, plate reader, cherry-pick, antagonist series (AID 743412); format: functional, cell-based
[12] = control 3'UTR Renilla luciferase suppression, dose response, counter-screen for Shn3 inhibitor project, cell-based, Clone20-Shn3RL, cherry-picked (AID 624133); format: functional
[13] = MC4R antagonists, dose response, counter-screen for LGR2 antagonist project, cell-based, plate reader, cherry pick (AID 743444); format: functional;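 note: transfected HEK 293 cells stimulated with alpha-MSH peptide; potency of inhibitors of the alpha-MSH evoked signal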
[14] = LGR2 antagonists, dose response, cell-based, HEK293, CRE-luciferase reporter, cherry pick, set 2 (AID 743343); format: functional;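 note: transfected cells were stimulated with diluted bursicon conditioned medium after compound addition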
[15] = Shn3 3'UTR reporter inhibitors, dose response, cell-based, Clone20 osteoblasts, firefly luciferase, cherry-picked (AID 624132); format: functional;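 note: firefly luciferase luminescence from reporter carrying the Shn3 3'UTR in osteoblasts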
[16] = biological target: T6, Heat shock factor protein 1 (Mus musculus, UniProt P38532); experiment: inhibition of MG132-induced HSE-luciferase signal, confirmation, cell-based, NIH3T3, luminescence, dose retest (AID 2382); format: functional;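 note: NIH3T3 fibroblasts with HSF1-driven luciferase reporter stressed by proteasome inhibitor MG132; luminescence from HSF1-driven luciferase expression after 8 hours of MG132 stress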
T6 sequence (P38532 whole entry): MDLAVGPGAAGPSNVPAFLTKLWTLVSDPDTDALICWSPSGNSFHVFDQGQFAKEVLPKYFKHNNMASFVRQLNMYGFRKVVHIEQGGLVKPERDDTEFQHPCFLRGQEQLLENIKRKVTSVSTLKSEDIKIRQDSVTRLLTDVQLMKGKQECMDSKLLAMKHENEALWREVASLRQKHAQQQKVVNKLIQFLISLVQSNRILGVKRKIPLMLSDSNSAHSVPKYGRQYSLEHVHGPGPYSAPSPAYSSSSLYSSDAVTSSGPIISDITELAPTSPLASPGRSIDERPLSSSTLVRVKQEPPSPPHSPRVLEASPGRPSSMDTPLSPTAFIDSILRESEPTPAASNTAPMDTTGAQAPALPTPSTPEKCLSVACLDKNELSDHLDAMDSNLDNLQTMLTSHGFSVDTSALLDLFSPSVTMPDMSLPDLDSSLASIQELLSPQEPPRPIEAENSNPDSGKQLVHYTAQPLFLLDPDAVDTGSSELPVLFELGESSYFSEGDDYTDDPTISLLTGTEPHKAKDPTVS

Paired box protein Pax-8, sequence (Q06710 whole entry): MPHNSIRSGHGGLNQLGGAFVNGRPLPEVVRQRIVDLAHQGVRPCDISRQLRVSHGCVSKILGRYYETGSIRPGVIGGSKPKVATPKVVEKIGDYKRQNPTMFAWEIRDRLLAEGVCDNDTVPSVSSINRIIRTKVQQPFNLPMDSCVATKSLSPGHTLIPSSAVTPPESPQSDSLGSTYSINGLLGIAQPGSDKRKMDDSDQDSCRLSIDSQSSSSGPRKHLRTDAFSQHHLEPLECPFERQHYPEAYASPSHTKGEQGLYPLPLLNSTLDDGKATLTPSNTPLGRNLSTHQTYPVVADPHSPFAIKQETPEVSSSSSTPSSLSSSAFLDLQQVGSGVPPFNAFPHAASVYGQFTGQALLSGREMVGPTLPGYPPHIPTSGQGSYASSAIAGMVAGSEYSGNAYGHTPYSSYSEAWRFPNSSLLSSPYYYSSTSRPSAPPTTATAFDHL

C[C@H]1CCCCO[C@@H](CN(C)Cc2ccc(C(F)(F)F)cc2)[C@@H](C)CN([C@@H](C)CO)C(=O)c2cc(NS(=O)(=O)c3ccccc3)ccc2O1
AC50 (Paired box protein Pax-8): 7.08 µM (active) | AC50 [1]: 58.1 µM (active) | AC50 [2]: 47.8 µM (active) | AC50 [3]: > 70 µM (inactive)

N=C1/C(=C/c2ccc(OCc3ccccc3F)cc2)C(=O)N=C2SC(CC(=O)N3CCOCC3)=NN12
EC50 [4]: > 67.5 µM (inactive)

Cc1cc(C(=O)CSc2cccc[n+]2[O-])c(C)n1-c1ccccc1
EC50 [4]: > 67.5 µM (inactive)

Brc1ccc(-c2noc(-c3ccccc3)n2)o1
EC50 [4]: > 67.6 µM (inactive) | IC50 (Protein skinhead-1): > 100 µM (inactive)

Cc1ccc(S(=O)(=O)Nc2ccc3c(c2)C(=O)N([C@@H](C)CO)C[C@H](C)[C@@H](CN(C)Cc2ccc(C(F)(F)F)cc2)OCCCC[C@@H](C)O3)cc1
AC50 (Paired box protein Pax-8): 5.99 µM (active) | AC50 [1]: 11.4 µM (active) | AC50 [2]: 33.1 µM (active) | AC50 [3]: 30.4 µM (active)

C[C@H]1CCCCO[C@@H](CN(C)Cc2ccc(C(F)(F)F)cc2)[C@@H](C)CN([C@@H](C)CO)C(=O)c2cc(NC(=O)c3ccccc3)ccc2O1
AC50 (Paired box protein Pax-8): 7.47 µM (active) | AC50 [1]: 6.48 µM (active) | AC50 [2]: 29.4 µM (active) | AC50 [3]: > 70 µM (inactive)

O=c1c2ccccc2nnn1CCc1ccccc1
EC50 [4]: > 67.4 µM (inactive)

Cc1cc(O)nc(SCC(=O)c2ccc(F)c(C)c2)n1
AC50 [5]: 26.9 µM (active)

CCCOC(=O)c1cc(-c2ccc(/C=C3/C(=O)N(C)C(=O)C(C#N)=C3C)o2)ccc1Cl
IC50 (Estrogen receptor beta [6]): 10.3 µM (not active) | IC50 (Estrogen receptor beta [7]): > 50 µM (not active)

CCCCNC(=O)c1c(N)n(Cc2ccc3c(c2)OCO3)c2nc3ccccc3nc12
AC50 [8]: 19.4 µM (active) | EC50 (Protein RecA): 56.3 µM (active)

Cc1ccccc1S(=O)(=O)N1CCCCN2[C@H](CO)[C@H](c3ccc(-c4ccccc4)cc3)[C@H]2C1
AC50 [9]: 1.05 µM (active) | AC50 [10]: 8.53 µM (active)

COc1cccc(-c2ccc([C@@H]3[C@H]4CNC[C@@H]3N4Cc3ccc4c(c3)OCO4)cc2)c1
AC50 [5]: 34.3 µM (active)

O=C(Nc1cc(F)ccc1F)N1CC(=O)N2[C@H](CO)[C@@H](c3ccc(C#CC4CCCCC4)cc3)[C@@H]2C1
AC50 [9]: 13.3 µM (active) | AC50 [10]: 40.3 µM (active)

O=C(O)c1cccc(COc2ccc(CO)cc2Cl)c1
AC50 [11]: > 52 µM (inactive) | AC50 [12]: 35 µM (active) | AC50 [13]: 0.274 µM (active) | AC50 [14]: 0.296 µM (active) | AC50 [15]: 1.04 µM (active) | EC50 [16]: 0.375 µM (active)
